Columns and labels:
human SS RBCs = test: Laser ektacytometry during controlled deoxygenation/reoxygenation (LORRCA Oxygenscan): POS, POR, elongation index; type: cell-based; conditions: 1 hour
Excerpt: The LORRCA red blood cell analysis platform was used to obtain information on deformability (cell and cell membrane stability), including under an osmotic gradient (osmotic resistance). The platform also can provide data on aggregation tendency and kinetics and measure the relative oxygen pressure at the critical point when the red blood cells start to sickle. Here, RBC Osmotic Fragility (elongation index (EI) vs. osmolality at specific sheer), RBC Deformability (EI vs sheer at specific osmolality), and RBC Oxyscan Sickling Characteristics (EI vs pO2) were determined. See, for example, FIG. 5.
See FIG. 6 for a description of how EI is calculated. See FIG. 7 for an example calculation of Oxyscan analysis parameters. […] LORRCA determines POS as the pO2 corresponding to a 5% decrease in EImax. If the EI is not completely stable at high pO2 (i.e., the Oxyscan baseline is not level), POS is calculated to be artificially high. FIG. 9 is a graph showing an example point of sickling (POS) determination from “first derivative,” which is taken from the plot. A common method to process, the first derivative of a spectrum is the rate of change of absorbance with respect to wavelength.
(§1) FIG. 19A presents illustrative chromatograms (standards & samples).
(§2) 5-HMF-induced Hb modification was quantitated by HPLC (Waters™ e2695XE Alliance™, Swift WCX-PEEK); O2 dissociation curves (ODC) were measured in intact RBCs (HEMOX Analyzer); pO2's at the point of sickling (POS) and point of unsickling (POU) were determined during controlled Hb O2 unloading/loading, respectively (LORRCA Oxygenscan RR Mechatronics).
(§3) After either 1 hour or 3 hours, either or both oxygen dissociation curves (ODC) or laser ektacytometry was performed to measure either or both p50 and POS/POR. […] As for PK data, effect upon p50 and POS/POR appear to progress from 1 hour to 3 hours. […] See also the results in FIG. 23. CNP=carbon nanoparticle.

[1] = target: T1, Hb (HbO2 affinity) in intact SRBCs (Homo sapiens, UniProt P69905); test: O2 dissociation curve / HbO2 affinity (p50) in intact SRBCs (HEMOX Analyzer); type: cell-based; conditions: pH 7.4, 5 mM 5-HMF, 1 hour, intact SCD RBCs
T1 construct: endogenous in cells; host or cells: red blood cells from patients with sickle cell disease (human SS RBCs)
T1 sequence (P69905 2-142): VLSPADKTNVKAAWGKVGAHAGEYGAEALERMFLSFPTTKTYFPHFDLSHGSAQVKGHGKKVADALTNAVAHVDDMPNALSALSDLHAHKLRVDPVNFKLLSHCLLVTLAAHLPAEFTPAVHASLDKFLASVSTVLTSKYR
T1 sequence (P68871 with tags, fused parts or gaps E7V partner): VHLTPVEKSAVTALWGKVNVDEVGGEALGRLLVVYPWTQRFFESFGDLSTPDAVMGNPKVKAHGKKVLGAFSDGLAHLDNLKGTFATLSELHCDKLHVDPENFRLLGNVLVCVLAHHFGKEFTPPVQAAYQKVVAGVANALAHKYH
Protocol: Hemox analysis methods determine oxygen partial pressure and the degree of hemoglobin saturation with oxygen using a Clark oxygen electrode and spectrophotometry, respectively.
as §1, §2, §3

[2] = tested on: RBCs from subjects without sickle cell disease; test: RBC lysis, blood from subjects without sickle cell disease; type: cell-based, human; conditions: healthy blood, 1-hour incubation at 37° C.
Protocol: Blood samples (RBCs) from subjects without sickle cell disease were tested with compounds to determine whether the compounds have any impact on RBC physiology, including tests for lysis, LORRCA (deformability and osmotic fragility), and HEMOX (ODC (p50) and cooperativity (Hill number)) after a 1-hour incubation at 37° C. See FIG. 33 for results for HPLC analysis of Hb modification; FIG. 34 for results for % RBC lysis for control blood (combined); FIG. 35 for results as shown; FIG. 36 for results for RBC osmotic fragility; and FIG. 37 for p50 and Hill number results for the oxygen dissociation curve (ODC).

[3] = target: T2, Hb (HbS) in human SS RBCs (Homo sapiens, UniProt P69905); test: 5-HMF-induced Hb modification quantitated by cation exchange HPLC in RBCs from SCD patients; type: cell-based
T2 construct: endogenous in cells; host or cells: red blood cells from patients with sickle cell disease (human SS RBCs)
T2 sequence (P69905 2-142): as the sequence (P69905 2-142) above
T2 sequence (P68871 with tags, fused parts or gaps E7V partner): as the sequence (P68871 with tags, fused parts or gaps E7V partner) above
Protocol: HPLC was performed to detect binding of an allosteric effector to Hb.
as §1, §2
See data in FIG. 21A and FIG. 21B (control patients) and FIG. 21C and FIG. 21D (SCD patients).

[4] = human trials; cited from earlier work

O=Cc1ccc(CO)o1 [Nanoparticle 5-HMF, 5-(hydroxymethyl)furfural]
POR decrease (human SS RBCs; 0 vs 5 mM 5-HMF): 45% | POS decrease (human SS RBCs; 0 vs 5 mM 5-HMF): 30% | pO2 at point of sickling (POS) (human SS RBCs; 5 mM 5-HMF, SCD RBCs): 39.8±11.6 Torr | ODC p50 [1]: 20.3±1.5 Torr | RBC lysis versus PBS control [2]: no difference | 5-HMF induced Hb modification (maximal) ([3]; SCD RBCs, 20% Hct, 37° C., 1 hour, 5 mM 5-HMF): about 75% | relative efficacy for % 5-HMF adducted Hb (ranking high to low) ([3]; equimolar for 5-HMF (5 mM), 0.25-24 hours): (high to low): free CoNP, 5-HMF, LP, CD, LNP | bioavailability [4]: low bioavailability | half-life [4]: ~1 h
